This is an account of results in US20250154169A1, “COMPOUNDS AND METHODS FOR MODULATING SPLICING” (REMIX THERAPEUTICS INC., priority 2021, published 2025).

One assay relates to HTT. Description: Protein abundance, HiBit-assay system (Promega), HTT. It counts as cell-based. As to conditions: Table 6; HiBiT-modified K562 cells, 24 hours. The source says: In some embodiments, a compound of Formula (I) or (II) or a pharmaceutically acceptable salt thereof, e.g., as described herein, modulates the expression of a target protein (e.g., HTT or MYB) in a reference cell or sample. In an embodiment, a compound of Formula (I) or (II) or a pharmaceutically acceptable salt thereof, e.g., as described herein, increases the expression of a target protein (e.g., HTT or MYB) in a reference cell or sample. In an embodiment, a compound of Formula (I) or (II) or a pharmaceutically acceptable salt thereof, e.g., as described herein, decreases the expression of a target protein (e.g., HTT or MYB) in a reference cell or sample. The effect of an exemplary compound of Formula (I) or (II) on protein abundance may be measured using a standard assay for measuring protein abundance, such as the HiBit-assay system (Promega). In this assay, percent response for each respective cell line may be as calculated at each compound concentration as follows: % response=100*(S−PC)/(NC−PC). For the normalized response at each concentration, a four-parameter logistical regression may be fit to the data and the response may be interpolated at the 50% value to determine a concentration for protein abundance at 50% (IC50) an untreated control. In an embodiment, a compound of Formula (I) or (II) or a pharmaceutically acceptable salt thereof, e.g., as described herein, has a protein abundance response less than 100 nM. In an embodiment, a compound of Formula (I) or (II) or a pharmaceutically acceptable salt thereof, e.g., as described herein, has a protein abundance response between 100-1000 nM. In an embodiment, a compound of Formula (I) or (II) or a pharmaceutically acceptable salt thereof, e.g., as described herein, has a protein abundance response greater than 1000 nM. In an embodiment, a compound of Formula (I) or (II) or a pharmaceutically acceptable salt thereof, e.g., as described herein, has a protein abundance response greater than 10 uM. In an embodiment, a compound of Formula (I) or (II) or a pharmaceutically acceptable salt thereof, e.g., as described herein, modulates the protein abundance of a target protein by about 1%, 5%, 10%, 15%, 20%, 25%, 30%, 35%, 40%, 45%, 50%, 55%, 60%, 65%, 70%, 75%, 80%, 85%, 90%, 95%, 99% or more, e.g., compared with a reference compound.

A further assay deals with MYB mRNA. The assay is described as follows: Splicing RT-qPCR assay, MYB canonical (CJ) and alternative (AJ) junction mRNA. As to conditions: Homo sapiens, 24 h, A673 or K562 cells, 24 hours compound treatment, RT-qPCR; for AC50: read-out: MYB AJ (AC50, increase in alternative junction mRNA); for IC50: read-out: MYB CJ (IC50, decrease in canonical junction mRNA). It counts as cell-based, human. In a few lines: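 A673 or K562 cells were treated 24 h at 37 °C with an 11-point 3-fold compound dilution series (top 10 uM, DMSO ≤0.25%). Lysates went to one-step RT-qPCR measuring canonical (CJ) and alternative-exon (AJ) junction transcripts, normalized to GAPDH, GUSB or PPIA.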

The test system of the next assay is K562 cells. The assay is described as follows: Cell Titer Glo 2.0 cell viability assay, K562. As to conditions: Homo sapiens, 72 hours incubation. The class given is cell-based.

Procedure for K562 cells: Compounds described herein were screened for toxicity in K562 (human chronic myelogenous leukemia) and SH-SY5Y (human neuroblastoma) cells using a Cell Titer Glo 2.0 assay.
• Promega CellTiter-Glo® 2.0 Cell Viability Assay (cat #G9241) • Corning 384-well TC-treated microplates (cat #3570)
Cells were plated at 500 cells/well (K562 cells) in 45 μL of IMDM supplemented with 10% FBS in a 384-well opaque plate. Wells containing only medium were used as a blank control. Test compounds (e.g., compounds of Formula (I) or (II)) were first serially diluted in DMSO then diluted 1:100 with EIDM+10% FBS. The final concentration of DMSO was 0.1% in each well. The cells were incubated for 72 hours at 37° C. and 5% CO2 before assaying with Cell Titer Glo 2.0 reagent.

For the molecule `Cc1cn2cc(NC(=O)c3ccc(N4CC[C@@H](NCc5cnc(Cl)nc5)C4)c4cn(C)nc34)cc(F)c2n1` [Compound 573, 4-[(3R)-3-{[(2-chloropyrimidin-5-yl)methyl]amino}pyrrolidin-1-yl]-N-{8-fluoro-2-methylimidazo[1,2-a]pyridin-6-yl}-2-methylindazole-7-carboxamide], the concentration for half-maximal inhibition (IC50) with HTT is more than 10000 nM. Also, in the assay with MYB mRNA, the AC50 lay in the range of 100 to 1000 nM and the IC50 is 100 to 1000 nM. This molecule also yielded a concentration for 50% growth inhibition (GI50) in the assay on K562 cells of 1000 to 10000 nM.

For `Cc1cn2cc(NC(=O)c3ccc(N4CCC(C)(NC(C)C)C4)c4cn(C)nc34)cc(F)c2n1` (stereo not drawn) [Compound 574], in the assay with HTT, the IC50 is more than 10000 nM. Moreover, in the assay with MYB mRNA, the AC50 is 100 to 1000 nM and the IC50 was in the range of 100 to 1000 nM. The GI50 with K562 cells lay within 100 to 1000 nM.

Turning to `CCn1cc2c(N3CCNCC3)ccc(C(=O)Nc3cc(F)c4ncccc4c3)c2n1` [Compound 575], the concentration for half-maximal inhibition (IC50) with HTT fell in the range of 1000 to 10000 nM. For the same molecule, in the assay with MYB mRNA, the concentration at half-maximal activity (AC50) is more than 10000 nM and the IC50 was more than 10000 nM. The GI50 in the assay on K562 cells fell in the range of 100 to 1000 nM.
